Results as given in patent publication US4760062A, “Pharmaceutical compositions of N-heterocyclic benzenesulfonamides and their use” (DROPIC, Societe Civile de gestion de droits de Propriete …, priority 1983, dated 1988).
Like-named read-outs stand apart in the source and are kept apart here.

Experiments:
mice [1] = assay: 4 plates test (suppressive conditioning), 25 mg/kg orally, increase in punished passages with respect to control; format: in vivo, Swiss male mice; conditions: Mus musculus, po, 1 h, male mice, 25 mg/kg single oral dose, 60 minutes before the test; read-out: % increase in the number of punished passages with respect to the control batch
Excerpt: The method is based on the attenuation or suppression of the anxiety state induced by electric shocks on movement of the animals (mice) into a special enclosure.
The anxiolytic effect is manifested by an increase in movements at doses not affecting motility.
For each dose, the groups are of 15 animals which have not undergone the test.
The apparatus was of the Apelex type.
It is composed of a parallelepipedic box of white plastic material, provided with a lid of transparent plexiglas, mobile by means of two hinges. The floor, which is rectangular, is constituted by four plates of conductive metal of which the distance between one another and the walls of the box is of 0.5 cm.
These plates are connected to an Apelex impulse generator. The potential difference when there is no impulse is, nil between two plates on a diagonal and is of 180 Volts between two adjacent plates. A trigger enables that a constant electrical current pulse be sent (of 0 to 2 milliamperes) for a selected time (from 0.1 to 5 seconds).
The operation is carried out in a silent area at constant temperature, the experimenter overlooking the box so that he can follow all the movements of the mice placed on one of the plates.
For each animal, the experiment is carried out according to the following modalities:
preliminary exploration of 15 seconds, without electric shock;
punished exploration (electric shock for each movement between two ajdacent plates) for 60 seconds.
The electric shocks have a duration of 0.5 seconds and an intensity of 0.6 milliampere.
The controls receive only carboxymethylcellulose.
The results are expressed as percentage of increase in the number of punished passages with respect to the control batch (increase percentage).

[2] = Acute toxicity (LD0, LD50, LD100); conditions: mouse, in vivo
mice [3] = assay: Acute toxicity (LD0, LD50, LD100); conditions: for ratio between the effective dose and the toxicity: mouse, in vivo
mice [4] = conditions: mouse, in vivo

SMILES: COc1ccc(Cl)cc1S(=O)(=O)N1CCN(CCO)CC1 [Compound 1263]
- change in vivo at 25 mg/kg (mice [1]): 10%

SMILES: COc1cc([N+](=O)[O-])c(Cl)cc1S(=O)(=O)N1CCN(CCO)CC1 [Compound 1290]
- change in vivo at 25 mg/kg (mice [1]): 17%

SMILES: COc1cc(OC)c(S(=O)(=O)N2CCN(C)CC2)cc1OC [Compound 1260]
- change in vivo at 25 mg/kg (mice [1]): 31%

SMILES: COc1cc(OC)c(S(=O)(=O)N2CCN(c3ccc(F)cc3)CC2)cc1S(C)(=O)=O [Compound 1298]
- LD50 ([2]; ip): > 2000 mg/kg
- LD0 (mice [3]; mice, route IP): > 2 000 mg/kg
- LD100 (mice [3]; mice, route IP): > 2 000 mg/kg
- ratio between the effective dose and the toxicity (mice [4]): satisfactory

SMILES: O=S(=O)(c1cc(C(F)(F)F)cc(C(F)(F)F)c1)N1CCCNCC1 [Compound 1408]
- change in vivo at 25 mg/kg (mice [1]): 22%

SMILES: O=C(c1ccccc1)N1CCCN(S(=O)(=O)c2ccc(Cl)c(C(F)(F)F)c2)CC1 [Compound 1393]
- LD0 (mice [3]; by oral route): > 2 000 mg/kg
- ratio between the effective dose and the toxicity (mice [4]): satisfactory

SMILES: COc1cc(OC)c(S(=O)(=O)N2CCN(Cc3ccccc3)CC2)cc1S(C)(=O)=O [Compound 1213]
- change in vivo at 25 mg/kg (mice [1]): 13%

SMILES: O=C(N1CCN(S(=O)(=O)c2cccc(C(F)(F)F)c2)CC1)C12CC3CC(CC(C3)C1)C2 [Compound 1503]
- change in vivo at 25 mg/kg (mice [1]): 28%

SMILES: O=C(c1ccco1)N1CCN(S(=O)(=O)c2cc(C(F)(F)F)cc(C(F)(F)F)c2)CC1 [Compound 1403]
- change in vivo at 25 mg/kg (mice [1]): 22%

SMILES: O=S(=O)(c1cccc(C(F)(F)F)c1)N1CCN(CCCO)CC1 [Compound 1500]
- change in vivo at 25 mg/kg (mice [1]): 25%

SMILES: COc1ccc(Cl)cc1S(=O)(=O)N1CCN(Cc2ccccc2)CC1 [Compound 1245]
- LD50 ([2]; ip): > 2000 mg/kg
- LD0 (mice [3]; mice, route IP): > 2 000 mg/kg
- LD100 (mice [3]; mice, route IP): > 2 000 mg/kg
- ratio between the effective dose and the toxicity (mice [4]): satisfactory

SMILES: COc1cc([N+](=O)[O-])c(Cl)cc1S(=O)(=O)N1CCN(C)CC1 [Compound 1292]
- LD50 ([2]; ip): 650 mg/kg
- LD0 (mice [3]; mice, route IP): 400 mg/kg
- LD100 (mice [3]; mice, route IP): 1 000 mg/kg
- ratio between the effective dose and the toxicity (mice [3]): satisfactory

SMILES: O=C(c1ccccc1)N1CCN(S(=O)(=O)c2cccc(C(F)(F)F)c2)CC1 [Compound 1502]
- change in vivo at 25 mg/kg (mice [1]): 20%

SMILES: COc1cc(OC)c(S(=O)(=O)N2CCN(CC(O)CO)CC2)cc1Cl (centres unmarked) [Compound 1295]
- LD50 ([2]; ip): 820 mg/kg
- LD0 (mice [3]; mice, route IP): 600 mg/kg
- LD100 (mice [3]; mice, route IP): 1 000 mg/kg
- ratio between the effective dose and the toxicity (mice [3]): satisfactory

SMILES: O=C(c1ccco1)N1CCN(S(=O)(=O)c2ccc(Cl)c(C(F)(F)F)c2)CC1 [Compound 1402]
- LD0 (mice [3]; by oral route): > 2 000 mg/kg
- ratio between the effective dose and the toxicity (mice [4]): satisfactory

SMILES: COc1ccc(Br)cc1S(=O)(=O)N1CCN(c2ccc(F)cc2)CC1 [Compound 1299]
- change in vivo at 25 mg/kg (mice [1]): 28%

SMILES: O=S(=O)(c1cc(C(F)(F)F)cc(C(F)(F)F)c1)N1CCNCC1 [Compound 1400]
- LD50 [2]: ~700 mg/kg
- LD0 (mice [3]; route not given): ~250 mg/kg
- ratio between the effective dose and the toxicity (mice [4]): satisfactory

SMILES: O=C(N1CCN(S(=O)(=O)c2ccc(Cl)c(C(F)(F)F)c2)CC1)C12CC3CC(CC(C3)C1)C2 [Compound 1406]
- change in vivo at 25 mg/kg (mice [1]): 24%

SMILES: COc1cc(OC)c(S(=O)(=O)N2CCNCC2)cc1OC [Compound 1243]
- LD50 ([2]; iv): 200 mg/kg
- LD0 (mice [3]; mice, route IV): 200 mg/kg
- LD100 (mice [3]; mice, route IV): 325 mg/kg
- ratio between the effective dose and the toxicity (mice [4]): satisfactory
- change in vivo at 25 mg/kg (mice [1]): 18%

SMILES: O=S(=O)(c1cccc(C(F)(F)F)c1)N1CCN(CCO)CC1 [Compound 1505]
- change in vivo at 25 mg/kg (mice [1]): 35%

SMILES: O=S(=O)(c1cccc(C(F)(F)F)c1)N1CCNCC1 [Compound 1504]
- change in vivo at 25 mg/kg (mice [1]): 26%

SMILES: COc1cc(N)c(Cl)cc1S(=O)(=O)N1CCN(C)CC1 [Compound 1427, 1'1-[(4-amino 5-chloro 2-methoxy)benzenesulfonyl]4-methyl piperazine]
- LD50 [2]: ~800 mg/kg
- LD0 (mice [3]; route not given): ~500 mg/kg
- ratio between the effective dose and the toxicity (mice [4]): satisfactory

SMILES: O=S(=O)(c1cc(C(F)(F)F)cc(C(F)(F)F)c1)N1CCCN(CC(O)CO)CC1 (centres unmarked) [Compound 1488, 4-(2.3-dihydroxypropyl)1-[(3,5-ditrifluoromethyl)benzenesulfonyl]homopiperazine]
- change in vivo at 25 mg/kg (mice [1]): 10%

SMILES: O=C(c1ccco1)N1CCCN(S(=O)(=O)c2ccc(Cl)c(C(F)(F)F)c2)CC1 [Compound 1405]
- change in vivo at 25 mg/kg (mice [1]): 14%

SMILES: COc1cc(OC)c(S(=O)(=O)N2CCN(CCO)CC2)cc1S(C)(=O)=O [Compound 1294]
- change in vivo at 25 mg/kg (mice [1]): 17%
